Measurements: PubChem BioAssay AID276 (DTP/NCI, 2004)
Several values for one entry are separate records, joined by “and”; a condition that tells them apart may be missing. Equal entries are not always repeated. Toxic doses and inconclusive results are not listed.

Tested on: B6C3F1 mice, Lewis lung carcinoma iv, survival T/C
Assay: NCI In Vivo Anticancer Drug Screen. Data for tumor model Lewis Lung Carcinoma (intravenous) in B6C3F1 mice
Conditions: endpoint: median survival time, schedule: Q01DX009 (ip), higher = longer survival
Procedure, shortened: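 Tumors were transplanted into mice, which were then dosed with compound or vehicle. Survival was recorded in each group, and the treated figure was divided by the control figure.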

[1] = dose: 12.5 mg/kg/injection, vehicle: saline
[2] = dose: 25.0 mg/kg/injection, vehicle: saline
[3] = dose: 100.0 mg/kg/injection, vehicle: saline
[4] = dose: 200.0 mg/kg/injection, vehicle: saline
[5] = dose: 3.12 mg/kg/injection, vehicle: Klucel (hydroxypropylcellulose) (HPC)
[6] = dose: 6.25 mg/kg/injection, vehicle: Klucel (hydroxypropylcellulose) (HPC)
[7] = dose: 0.06 mg/kg/injection, vehicle: saline
[8] = dose: 0.12 mg/kg/injection, vehicle: saline
[9] = dose: 0.25 mg/kg/injection, vehicle: saline
[10] = dose: 25.0 mg/kg/injection, vehicle: saline with Tween-80
[11] = dose: 50.0 mg/kg/injection, vehicle: saline with Tween-80
[12] = dose: 100.0 mg/kg/injection, vehicle: saline with Tween-80
[13] = dose: 200.0 mg/kg/injection, vehicle: saline with Tween-80
[14] = dose: 400.0 mg/kg/injection, vehicle: saline with Tween-80
[15] = dose: 50.0 mg/kg/injection, vehicle: saline
[16] = dose: 400.0 mg/kg/injection, vehicle: saline
[17] = dose: 0.78 mg/kg/injection, vehicle: saline
[18] = dose: 1.56 mg/kg/injection, vehicle: saline
[19] = dose: 3.12 mg/kg/injection, vehicle: saline
[20] = dose: 6.25 mg/kg/injection, vehicle: saline
[21] = dose: 0.03 mg/kg/injection, vehicle: saline
[22] = dose: 12.5 mg/kg/injection, vehicle: saline with Tween-80

Q: Which T/C [1] does the source give for `NC1=NC(=O)N2CC12` (centres undefined) here?
A: 110 % of control

Q: And the T/C [2]?
A: 110 % of control

Q: And the T/C [3]?
A: 110 % of control

Q: And the T/C [4]?
A: 109 % of control

Q: What does the source list for `COC12C(COC(=O)NCCO)C3=C(C(=O)C(C)=C(N)C3=O)N1CC1NC12` (centres undefined)?
A: T/C [5]: 111 % of control; T/C [6]: 102 % of control

Q: `O=C1C(NCCO)=C(N2CC2)C(=O)C(NCCO)=C1N1CC1` was tested. Which T/C [7] did it give?
A: 103 % of control

Q: And the T/C [8]?
A: 97 % of control

Q: And the T/C [9]?
A: 106 % of control

Q: And the T/C (dose: 0.5 mg/kg/injection, vehicle: saline)?
A: 108 % of control

Q: And the T/C (dose: 1.0 mg/kg/injection, vehicle: saline)?
A: 106 % of control

Q: With `CCC(C)Nc1ccc(N)cc1` (centres undefined) as the compound, how does the T/C (dose: 1.5 mg/kg/injection, vehicle: Klucel (hydroxypropylcellulose) (HPC)) read?
A: 86 % of control

Q: What about the T/C (dose: 3.0 mg/kg/injection, vehicle: Klucel (hydroxypropylcellulose) (HPC)) of the same compound?
A: 98 % of control

Q: What about the T/C (dose: 6.0 mg/kg/injection, vehicle: Klucel (hydroxypropylcellulose) (HPC)) of the same compound?
A: 94 % of control

Q: What about the T/C (dose: 12.0 mg/kg/injection, vehicle: Klucel (hydroxypropylcellulose) (HPC)) of the same compound?
A: 93 % of control

Q: What does the source list for `CC(=O)Nc1cscc1NC(C)=O`?
A: T/C [10]: 103 % of control; T/C [11]: 101 % of control and 106 % of control; T/C [12]: 98 % of control; T/C [13]: 94 % of control and 108 % of control; T/C [14]: 112 % of control and 88 % of control

Q: `O=NN(CCCl)C(=O)Oc1ccc(OC(=O)N(CCCl)N=O)cc1` was tested. Which T/C (dose: 0.5 mg/kg/injection, vehicle: Klucel (hydroxypropylcellulose) (HPC)) did it give?
A: 95 % of control

Q: What about the T/C (dose: 1.0 mg/kg/injection, vehicle: Klucel (hydroxypropylcellulose) (HPC)) of the same compound?
A: 96 % of control

Q: What about the T/C (dose: 2.0 mg/kg/injection, vehicle: Klucel (hydroxypropylcellulose) (HPC)) of the same compound?
A: 105 % of control

Q: What about the T/C [5] of the same compound?
A: 97 % of control

Q: And the T/C (dose: 4.0 mg/kg/injection, vehicle: Klucel (hydroxypropylcellulose) (HPC))?
A: 111 % of control

Q: `NC(CCC(=O)NC(CS)C(=O)NCC(=O)O)C(=O)O` (centres undefined) was tested. Which T/C [15] did it give?
A: 100 % of control

Q: And the T/C [3]?
A: 101 % of control

Q: And the T/C [4]?
A: 95 % of control

Q: What about the T/C [16] of the same compound?
A: 103 % of control

Q: Which results are given for `OCCN1CCN(CC/C=C2/c3ccccc3Sc3ccc(C(F)(F)F)cc32)CC1`?
A: T/C (dose: 0.19 mg/kg/injection, vehicle: saline): 114 % of control; T/C (dose: 0.39 mg/kg/injection, vehicle: saline): 101 % of control; T/C [17]: 102 % of control; T/C [18]: 98 % of control; T/C [19]: 98 % of control; T/C [20]: 108 % of control

Q: `CC(=O)Oc1c(C)[nH]ccc1=O` was tested. Which T/C [2] did it give?
A: 97 % of control

Q: And the T/C [15]?
A: 96 % of control

Q: What about the T/C [3] of the same compound?
A: 96 % of control

Q: And the T/C [4]?
A: 103 % of control

Q: What about the T/C [16] of the same compound?
A: 114 % of control

Q: Which results are given for `CCCCNCCCNCCCNC(=O)c1csc(-c2csc(CCNC(=O)C(NC(=O)C(C)C(O)C(C)NC(=O)C(NC(=O)c3nc(C(CC(N)=O)NCC(N)C(N)=O)nc(N)c3C)C(OC3OC(CO)C(O)C(O)C3OC3OC(CO)C(O)C(OC(N)=O)C3O)c3cnc[nH]3)C(C)O)n2)n1` (centres undefined)?
A: T/C (dose: 2.0 mg/kg/injection, vehicle: saline): 112 % of control; T/C (dose: 8.0 mg/kg/injection, vehicle: saline): 155 % of control; T/C (dose: 16.0 mg/kg/injection, vehicle: saline): 184 % of control

Q: `CNC(=O)/C=C/C1=CN2C(=O)c3ccc(C)c(O)c3NC(OC)C2C1` (centres undefined) was tested. Which T/C (dose: 0.01 mg/kg/injection, vehicle: saline) did it give?
A: 90 % of control and 113 % of control

Q: What about the T/C (dose: 0.02 mg/kg/injection, vehicle: saline) of the same compound?
A: 93 % of control

Q: What about the T/C [21] of the same compound?
A: 96 % of control

Q: And the T/C (dose: 0.05 mg/kg/injection, vehicle: saline)?
A: 97 % of control and 107 % of control

Q: What about the T/C (dose: 0.1 mg/kg/injection, vehicle: saline) of the same compound?
A: 90 % of control and 103 % of control

Q: What does the source list for `COc1ccc2nonc2c1`?
A: T/C (dose: 6.25 mg/kg/injection, vehicle: saline with Tween-80): 107 % of control and 112 % of control; T/C [22]: 102 % of control and 118 % of control; T/C [10]: 101 % of control and 107 % of control; T/C [11]: 106 % of control and 109 % of control

Q: What does the source list for `CC(=O)ON(C(C)=O)c1ccc(C(N)=O)cc1`?
A: T/C [10]: 102 % of control; T/C [11]: 93 % of control; T/C [12]: 107 % of control; T/C [13]: 99 % of control; T/C [14]: 106 % of control

Q: `CCCCCC[C@H]([C@H](C)O)n1cnc2c(N)ncnc21` was tested. Which T/C [5] did it give?
A: 88 % of control

Q: And the T/C [6]?
A: 101 % of control

Q: What about the T/C (dose: 12.5 mg/kg/injection, vehicle: Klucel (hydroxypropylcellulose) (HPC)) of the same compound?
A: 114 % of control

Q: What about the T/C (dose: 25.0 mg/kg/injection, vehicle: Klucel (hydroxypropylcellulose) (HPC)) of the same compound?
A: 94 % of control

Q: And the T/C (dose: 50.0 mg/kg/injection, vehicle: Klucel (hydroxypropylcellulose) (HPC))?
A: 109 % of control

Q: And the T/C (dose: 100.0 mg/kg/injection, vehicle: Klucel (hydroxypropylcellulose) (HPC))?
A: 105 % of control

Q: Which results are given for `CCCCCCOC(CN(C)C)C(Cl)(Cl)Cl` (centres undefined)?
A: T/C [22]: 106 % of control; T/C [10]: 96 % of control; T/C [11]: 90 % of control; T/C [12]: 95 % of control; T/C [13]: 95 % of control

Q: How did the T/C [21] turn out when `CC(=O)[C@]1(O)Cc2c(O)c3c(c(O)c2[C@@H](OC2CC(N)C(O)C(C)O2)C1)C(=O)c1c(O)cccc1C3=O` (some centres undefined) was run?
A: 107 % of control

Q: And the T/C [7]?
A: 96 % of control

Q: What about the T/C [8] of the same compound?
A: 108 % of control

Q: And the T/C [9]?
A: 117 % of control

Q: For `CCOC(=O)c1[nH]c2cccc3c2c1CC(Br)C3=O` (centres undefined), which T/C (dose: 12.0 mg/kg/injection, vehicle: saline with Tween-80) is on record?
A: 102 % of control

Q: And the T/C [10]?
A: 100 % of control

Q: And the T/C [11]?
A: 99 % of control

Q: Which T/C [17] does the source give for `NC(=O)c1csc(C2OC(CO)C(O)C2O)n1` (centres undefined) here?
A: 94 % of control

Q: What about the T/C [18] of the same compound?
A: 109 % of control

Q: And the T/C [19]?
A: 108 % of control

Q: And the T/C [20]?
A: 119 % of control

Q: And the T/C (dose: 12.0 mg/kg/injection, vehicle: saline)?
A: 155 % of control and 158 % of control

Q: And the T/C [1]?
A: 284 % of control

Q: And the T/C (dose: 25.0 mg/kg/injection, vehicle: water)?
A: 240 % of control and 348 % of control and 355 % of control

Q: What about the T/C (dose: 50.0 mg/kg/injection, vehicle: water) of the same compound?
A: 240 % of control and 348 % of control and 355 % of control

Q: What about the T/C (dose: 62.5 mg/kg/injection, vehicle: water) of the same compound?
A: 295 % of control

Q: What about the T/C (dose: 100.0 mg/kg/injection, vehicle: water) of the same compound?
A: 240 % of control and 348 % of control and 355 % of control

Q: And the T/C (dose: 125.0 mg/kg/injection, vehicle: water)?
A: 295 % of control

Q: And the T/C (dose: 200.0 mg/kg/injection, vehicle: water)?
A: 240 % of control and 348 % of control and 355 % of control

Q: And the T/C (dose: 250.0 mg/kg/injection, vehicle: water)?
A: 295 % of control

Q: And the T/C (dose: 400.0 mg/kg/injection, vehicle: water)?
A: 240 % of control and 348 % of control and 355 % of control

Q: And the T/C (dose: 500.0 mg/kg/injection, vehicle: water)?
A: 295 % of control

Q: And the T/C (dose: 800.0 mg/kg/injection, vehicle: water)?
A: 240 % of control

Q: What about the T/C (dose: 1000.0 mg/kg/injection, vehicle: water) of the same compound?
A: 295 % of control

Q: For `COc1cccc(C2NC(=O)c3c(n[nH]c3N)S2)c1O` (centres undefined), which T/C [22] is on record?
A: 114 % of control

Q: What about the T/C [10] of the same compound?
A: 102 % of control

Q: And the T/C [11]?
A: 122 % of control

Q: And the T/C [12]?
A: 99 % of control

Q: And the T/C [13]?
A: 109 % of control

Q: With `COc1cccc2c1C(=O)c1c(O)c3c(c(O)c1C2=O)C[C@@](O)(/C(C)=N\NC(=O)CO)C[C@@H]3OC1CC(N)C(O)C(C)O1` (some centres undefined) as the compound, how does the T/C [20] read?
A: 87 % of control

Q: `CC(C#N)(C#N)N=Nc1ccc(Cl)cc1Cl` was tested. Which T/C [22] did it give?
A: 98 % of control

Q: What about the T/C [10] of the same compound?
A: 104 % of control

Q: And the T/C [11]?
A: 109 % of control

Q: What about the T/C [12] of the same compound?
A: 110 % of control

Q: What about the T/C [13] of the same compound?
A: 106 % of control

Q: What about the T/C [14] of the same compound?
A: 104 % of control
